Assay results published in patent US7700272B2, “Polynucleotides encoding acetylcholine-gated chloride channel subunits of Caenorhabditis elegans” (priority 2004, dated 2010).
“And” between values parts separate entries of the source, which are not always exact repeats. Identical values can stand only once. “Also recorded” adds a separate entry of the source. Like-named read-outs stand apart in the source and are kept apart here. Marks after values point to notes of the source that are not given here.

Tests used:
[1] = biological target: ACC-2D6.3 channel (Caenorhabditis elegans, UniProt Q18812); test: cell-based
Chain of ACC-2D6.3 channel (Caenorhabditis elegans, UniProt Q18812) (Q18812 whole entry, looked up): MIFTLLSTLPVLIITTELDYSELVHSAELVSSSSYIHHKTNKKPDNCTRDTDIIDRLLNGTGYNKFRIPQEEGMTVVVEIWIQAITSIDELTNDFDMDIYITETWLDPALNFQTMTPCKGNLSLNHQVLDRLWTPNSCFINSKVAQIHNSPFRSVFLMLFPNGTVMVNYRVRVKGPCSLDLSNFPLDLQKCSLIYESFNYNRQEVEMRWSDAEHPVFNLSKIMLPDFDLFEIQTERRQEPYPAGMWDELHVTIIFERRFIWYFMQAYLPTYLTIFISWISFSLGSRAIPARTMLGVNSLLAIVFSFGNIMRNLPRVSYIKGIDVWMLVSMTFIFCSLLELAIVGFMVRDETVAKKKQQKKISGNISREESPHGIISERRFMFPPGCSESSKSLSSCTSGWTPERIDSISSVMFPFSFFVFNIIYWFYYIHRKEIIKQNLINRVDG
From the text: (§1) For capped cRNA synthesis, cDNAs were subcloned into the pT7N vector, which contains a T7 RNA polymerase promoter, the 5′- and 3′-UTR of Xenopus laevis beta-globin, and an encoded poly(A+) tail (Cary R B, Klymkowsky M W, Evans R M, Domingo A, Dent J A, Backhus L E (1994) Vimentin's tail interacts with actin-containing structures in vivo. J Cell Sci 107:1609-1622.). The pT7NcDNA constructs were linearized with Sal I (ACC-2D6.3) or BamHI (ACC-1G6.4) and transcribed using the MEGAscript Kit (Ambion, Austin, Tex., USA). Synthesized cRNAs were recovered by LiCl precipitation and resuspended in nuclease-free H2O at final concentration of 1 microgram/ml.
(§2) Oocytes were harvested from mature female Xenopus leavis according to standard procedures (Goldin, A. L. (1992) Maintenance of Xenopus laevis and oocyte injection. Methods Enzymol. 207: 266-79.). To remove inner ovarian epithelium, thecal cell layer, and follicular cells, the ovarian pieces were placed in OR-2 solution: 82.5 mM NaCl, 2 mM KCl, 1 mM MgCl2, and 5 mM Hepes (pH 7.5) containing 1 mg/ml type I collagenase (Sigma, St Louis Mo., USA) either for 3 hours at 20° C. with gentle agitation or for 1 hour followed by manual defolliculization. The stage VI defolliculated oocytes were placed in ND96 solution (96 mM NaCl, 2 mM KCl, 1.8 mM CaCl2, 1 mM MgCl2, and 5 mM Hepes, pH7.5). Oocytes were injected with 40 nl of cRNA using the Nanoject system (Drummond Scientific, Broomall, Pa., USA). Injected oocytes were incubated at 20° C. in ND96 supplemented with […] gentamycin and […] pyruvate. Oocytes were allowed to express cRNA for two days before measurements were taken.
(§3) Two-electrode voltage-clamp recordings were performed using the AxoClamp 2B amplifier (Axon Instruments, Foster City, Calif., USA). Microelectrodes were pulled from borosilicate glass capillaries (Word Precision Instruments, Inc., Sarasota, Fla., USA) on the P-97 micropipette puller Sutter Instruments, Novato, Calif., USA). […] Each oocyte was placed in RC-12 recording chamber (Warner Instrument Inc., Hamden, Conn., USA) or a Maltese cross chamber (ALA Scientific Instruments, Westbury, N.Y., USA) and clamped at −80 mV. Data were acquired at 1 kHz using Clampex software (Axon Instruments, Foster City, Calif., USA).
(§4) Dose-response curves for agonists were generated by their applying the agonist in increasing concentrations followed by 3-9 min washes at each concentration. To determine EC50 and Hill coefficient agonist dose response curves were fit using the following equation: f(I)=(Imax[I]^n/(EC50^n+[I]^n))+Imin, where I is the normalized response to agonist at certain concentration, Imax is the maximal response elicited by a saturating concentration of agonist, EC50 is the concentration of agonist inducing half-maximal response, n is the Hill coefficient, and Imin is the normalized response at lowest agonist concentration.
(§5) The mean and standard error of the mean of peak current responses of at least three oocytes per experiment are represented.
(§6) All drugs were obtained from Sigma-Aldrich (St. Louis, Mo. USA) except imidicloprid (IMI) which was provided by Crompton Co. (Guelph, ON, Canada). Drugs were dissolved in ND96 except IMI, which was made as a stock solution in DMSO and diluted to working concentrations in ND96. If required, drug solutions were adjusted to pH 7.5 with either NaOH or HCl. Fresh solutions were prepared before measurements and stored at 4° C. for 1-5 days.

[2] = biological target: T1, ACC-1G6.4 channel (Caenorhabditis elegans, UniProt Q21005); test: Two-electrode voltage-clamp of Xenopus oocytes expressing ACC-1G6.4 homomeric channel; format: cell-based, C. elegans
T1 construct: Agonist: percentage of maximal acetylcholine-elicited response; other: compound at 0.1 mM; Agonist: percentage of maximal acetylcholine-elicited response; other: compound at 0.2 mM; other: compound at 0.4 mM; other: compound at 0.8 mM; Agonist: percentage of maxim
T1 sequence (Q21005 whole entry, looked up): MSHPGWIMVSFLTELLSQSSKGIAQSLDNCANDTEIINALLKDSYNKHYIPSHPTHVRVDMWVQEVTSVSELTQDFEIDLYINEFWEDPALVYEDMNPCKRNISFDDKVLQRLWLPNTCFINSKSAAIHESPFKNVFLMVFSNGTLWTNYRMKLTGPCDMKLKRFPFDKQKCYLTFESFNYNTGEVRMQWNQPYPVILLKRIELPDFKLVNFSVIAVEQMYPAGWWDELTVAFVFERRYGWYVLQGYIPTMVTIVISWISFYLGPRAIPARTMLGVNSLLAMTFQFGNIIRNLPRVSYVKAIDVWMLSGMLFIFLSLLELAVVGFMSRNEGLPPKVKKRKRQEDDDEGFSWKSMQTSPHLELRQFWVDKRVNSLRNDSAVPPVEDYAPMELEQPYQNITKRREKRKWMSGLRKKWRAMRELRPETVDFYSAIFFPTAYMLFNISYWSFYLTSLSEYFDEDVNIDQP
From the text: as §1, §2, §3, §4, §5, §6

[3] = test system: ACC-3D10.5; test: Two-electrode voltage-clamp of Xenopus oocytes injected with ACC-3D10.5 cRNA; format: cell-based, C. elegans; details: 1 mM
Experimental: (§7) Oocytes were harvested from mature female Xenopus leavis according to standard procedures (Goldin, A. L. (1992) Maintenance of Xenopus laevis and oocyte injection. Methods Enzymol. 207: 266-79.). To remove inner ovarian epithelium, thecal cell layer, and follicular cells, the ovarian pieces were placed in OR-2 solution: 82.5 mM NaCl, 2 mM KCl, 1 mM MgCl2, and 5 mM Hepes (pH 7.5) containing 1 mg/ml type I collagenase (Sigma, St Louis Mo., USA) either for 3 hours at 20° C. with gentle agitation or for 1 hour followed by manual defolliculization. The stage VI defolliculated oocytes were placed in ND96 solution (96 mM NaCl, 2 mM KCl, 1.8 mM CaCl2, 1 mM MgCl2, and 5 mM Hepes, pH7.5). Oocytes were injected with 40 nl of cRNA using the Nanoject system (Drummond Scientific, Broomall, Pa., USA). Injected oocytes were incubated at 20° C. in ND96 supplemented with 100 mg/ml gentamycin and 550 mg/ml pyruvate. Oocytes were allowed to express cRNA for two days before measurements were taken.

[4] = test system: ACC-2D6.3+ACC-4E9.9; format: cell-based, C. elegans; details: 1 mM
Experimental: as §7

[5] = test system: ACC-2D6.3+ACC-3D10.5; format: cell-based, C. elegans; details: 1 mM
Experimental: as §7

[6] = test system: ACC-4E9.9; test: Two-electrode voltage-clamp of Xenopus oocytes injected with ACC-4E9.9 cRNA; format: cell-based, C. elegans; details: 1 mM
Experimental: as §7

[7] = biological target: rat α9nAChRs (Rattus norvegicus, UniProt P43144); details: cited from earlier work
Chain of rat α9nAChRs (P43144 26-479): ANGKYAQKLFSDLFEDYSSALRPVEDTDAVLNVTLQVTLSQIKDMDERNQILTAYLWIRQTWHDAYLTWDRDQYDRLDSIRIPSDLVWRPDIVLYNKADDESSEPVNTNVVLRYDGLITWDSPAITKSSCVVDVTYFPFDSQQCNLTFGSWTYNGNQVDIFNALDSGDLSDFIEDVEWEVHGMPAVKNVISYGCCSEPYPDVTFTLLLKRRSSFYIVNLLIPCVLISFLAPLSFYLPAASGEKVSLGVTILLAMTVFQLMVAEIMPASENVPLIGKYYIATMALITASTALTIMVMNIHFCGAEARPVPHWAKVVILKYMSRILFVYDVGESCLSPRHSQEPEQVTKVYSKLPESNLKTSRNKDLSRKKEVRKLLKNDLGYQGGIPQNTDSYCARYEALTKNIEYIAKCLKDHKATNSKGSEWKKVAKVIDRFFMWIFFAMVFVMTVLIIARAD

[8] = test system: ACC-2D6.3 channel; test: cell-based
From the text: as §1, §2, §3, §4, §5, §6

[9] = test system: Aplysia receptors mediating the slow desensitizing chloride-dependent response; details: cited from earlier work; for IC50: Table 4
[10] = read-out: Agonist: percentage of maximal acetylcholine-elicited response
[11] = concentration tested in brackets where printed
[12] = concentration tested in brackets where printed, listed as d-tubocurarine

C[N+](C)(C)CCCCCC[N+](C)(C)C [C6, hexamethonium]
Agonist: percentage of maximal acetylcholine-elicited response [1]: 0% | antagonist action (in words) [1]: antagonists | agonist action (in words) [2]: simultaneously as an agonist and an antagonist | antagonist action (in words) [2]: antagonists | activation at 200 µM [2, 10]: 0% | activation at 1000 µM [2, 10]: 10 ± 2.6%

NCCCC(=O)O [GABA]
response (in words) [3]: did not respond | response (in words) [4]: Neither did ACC-2D6.3+ACC-3D10.5 nor ACC-2D6.3+ACC-4E9.9 expressing oocytes respond | response (in words) [5]: Neither did ACC-2D6.3+ACC-3D10.5 nor ACC-2D6.3+ACC-4E9.9 expressing oocytes respond | response (in words) [6]: did not respond | response (in words) ([1]; 1 mM): did not respond | response (in words) ([2]; 1 mM): did not respond

O=[N+]([O-])NC1=NCCN1Cc1ccc(Cl)nc1 [IMI, imidacloprid]
antagonist action (in words) [1]: only partially blocked | Antagonist: percentage decrease in a response to acetylcholine [2]: 0% | activation at 10 µM ([2]; compound at 10 μM, read-out: Agonist: percentage of maximal acetylcholine-elicited response): 0% | antagonist action (in words) [2, 11]: no effect

CN1[C@@H]2CC[C@H]1C[C@@H](OC(=O)C(CO)c1ccccc1)C2 (stereo partly shown) [atropine]
IC50 [7]: 1 µM | agonist action (in words) [7]: no agonistic | antagonist action (in words) [7]: Antagonist

O=c1cccc2n1C[C@@H]1CNC[C@H]2C1 [cytisine]
IC50 [7]: 43.1 µM | agonist action (in words) [7]: no agonistic activity | antagonist action (in words) [7]: Antagonist | Agonist: percentage of maximal acetylcholine-elicited response [1]: 15.5 ± 2.9% | EC50 [1]: ~1000 µM | IC50 [1]: ~100 µM | concentrations at which channels responded [8]: 800 to 1000 µM | agonist action (in words) [9]: Weak partial agonist | estimated relative effectiveness versus acetylcholine [9]: ~0.14 | EC50 ([9]; read-out: EC50 (range)): ~100 µM | Antagonist: percentage decrease in a response to acetylcholine [2]: 66.8 ± 3% and 95 ± 1.4% | IC50 [2]: ~10 µM | agonist action (in words) [2]: weak agonists and/or antagonists; also recorded: no agonistic activity | antagonist action (in words) [2]: only as an antagonist | activation at 800 µM [2, 10]: 0%

COc1cc2c3cc1Oc1cc(ccc1O)C[C@@H]1c4c(cc(OC)c(O)c4Oc4ccc(cc4)C[C@@H]3N(C)CC2)CC[N+]1(C)C [d-TC, d-tubocurarine]
IC50 ([7]; Table 4, read-out: IC50): 0.3 µM | antagonist action (in words) [7]: Antagonist | Agonist: percentage of maximal acetylcholine-elicited response ([1]; compound at 20 μM): 0% | antagonist action (in words) [1, 11]: Antagonist | antagonist action (in words) [1, 12]: irreversibly | IC50 ([1]; read-out: IC50 (range or bound), Table 4, order of magnitude): < 20 µM | IC50 [9]: ~40 µM | antagonist action (in words) [9]: Antagonist | Antagonist: percentage decrease in a response to acetylcholine [2]: 100^a ^ % | IC50 ([2]; Table 4, order of magnitude, read-out: IC50 (range or bound)): < 20 µM | Agonist: percentage of maximal acetylcholine-elicited response ([2]; compound at 20 μM): 0% | antagonist action (in words) [2, 11]: Antagonist | antagonist action (in words) [2, 12]: irreversibly

CO[C@H]1CC=C2CCN3CCC4=C(CC(=O)OC4)[C@]23C1 [dβe, dihydro-β-erythroidine]
IC50 ([7]; Table 4, read-out: IC50): 24.2 µM | antagonist action (in words) [7]: Antagonist | Agonist: percentage of maximal acetylcholine-elicited response [1]: 0% | IC50 [1]: ~10 µM | IC50 [9]: ~20 µM | antagonist action (in words) [9]: Antagonist | IC50 ([2]; Table 4, order of magnitude, read-out: IC50 (range)): ~100 µM | Agonist: percentage of maximal acetylcholine-elicited response ([2]; compound at 0.4 mM): 0% | antagonist action (in words) [2, 11]: Antagonist | antagonist action (in words) ([2]; concentration tested in brackets where printed, listed as Dihydro-β-erythroidine): antagonist | antagonist action (in words) ([2]; concentration tested in brackets where printed, listed as dihydro-β-erythroidine): antagonists
